# In patent publication US11040028B2, “Penicinotam derivative, preparation method and use thereof” (OCEAN UNIVERSITY OF CHINA, priority 2017, dated 2021):
# How the values were obtained:
# Assay type in all cases: cell-based
# [1] = tested on: human dermal fibroblasts CCC-ESF-1; experiment: Anti-fibrosis activity test: inhibition of proliferation of human dermal fibroblasts CCC-ESF-1 (CCK-8); details: Fibroblast; human dermal fibroblasts CCC-ESF-1, CCK-8, 48 hours
# Summary of the method: (§1)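 Exponentially growing cells, 2×10^4 cells/mL, attached 24 h. Dosed 48 h across concentrations (n=3). CCK-8 2 h → A450; IR vs blank; IC50.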
# [2] = tested on: human embryonic lung fibroblast IMR-90; experiment: Anti-fibrosis activity test: inhibition of proliferation of human embryonic lung fibroblast IMR-90 (CCK-8); details: human embryonic lung fibroblast IMR-90, CCK-8, 48 hours
# Summary of the method: as §1
# [3] = tested on: cardiac fibroblast RAT-iCell-C002; experiment: Anti-fibrosis activity test: inhibition of proliferation of cardiac fibroblast RAT-iCell-C002 (CCK-8); details: Cardiac fibroblast, 48 h, cardiac fibroblast RAT-iCell-C002, CCK-8, 48 hours
# Summary of the method: as §1
# [4] = tested on: NF-κB; experiment: Immunological activity test: inhibition of NF-κB activity; details: initial concentration of 30 μM; a/b isomers given as first/second symbol; read-out: IC50 (μM), inhibitory activity against NF-κB
# Summary of the method: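 NF-κB inhibition was tested at an initial 30 μM compound concentration, with parthenolide as positive control, and IC50 values were determined from follow-up analysis.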
# [5] = tested on: BHK-21 cells; experiment: Anti-fibrosis activity test: inhibition of BHK-21 cell proliferation (CCK-8); details: Mesocricetus auratus, BHK-21, 48 h, CCK-8, 48 hours after administration
# Summary of the method: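 Cells seeded at 2×10^4 cells/mL, allowed to adhere 24 hours, then exposed to graded compound concentrations in triplicate for 48 hours at 37° C, 5% CO2. CCK-8 added for 2 hours, absorbance read at 450 nm; inhibition versus blank control used to derive IC50. Pirfenidone served as positive control.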
# [6] = tested on: human lung fibroblasts HFL1; experiment: Anti-fibrosis activity test: inhibition of proliferation of human lung fibroblasts HFL1 (CCK-8); details: Homo sapiens, HFL1, 48 h, human lung fibroblasts HFL1, CCK-8, 48 hours
# Summary of the method: as §1
# [7] = tested on: human fibrosarcoma cells HT-1080; experiment: Anti-fibrosis activity test: inhibition of proliferation of human fibrosarcoma cells HT-1080 (CCK-8); details: Homo sapiens, HT-1080, 48 h, human fibrosarcoma cells HT-1080, CCK-8, 48 hours
# Summary of the method: as §1
# [8] = tested on: human hepatic stellate cells LX-2; experiment: Anti-fibrosis activity test: inhibition of proliferation of human hepatic stellate cells LX-2 (CCK-8); details: Homo sapiens, 48 h, human hepatic stellate cells LX-2, CCK-8, 48 hours
# Summary of the method: as §1
# [9] = tested on: mouse macrophages (RAW264.7); experiment: Lipopolysaccharide-induced NO secretion in macrophages (Griess); details: Mus musculus, RAW264.7, 24 h, RAW264.7, LPS 1 μg/ml, a/b isomers given as first/second symbol, read-out: IC50 (μM), inhibition of lipopolysaccharide-induced NO secretion in macrophages
# Summary of the method: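 RAW264.7 cells in DMEM with 10% FBS were treated with test compounds at several concentrations, then stimulated with LPS (1 μg/ml) for 24 hours. Nitrite in the supernatant was measured by Griess reaction at 548 nm, and percent inhibition was calculated against blank-medium controls.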
Compound,IC50 [1],IC50 [2],IC50 [3],IC50 [4],IC50 [5],IC50 [6],IC50 [7],IC50 [8],IC50 [9]
"O=C1c2c(n(Cc3ccccc3Cl)c3ccccc3c2=O)-c2cccn21 [Compound 600a, 4-(2-Chlorobenzyl)-9H-pyrrolizino[1,2-b]quinoline-9,10(4H)-dione]",0.05 to 5 mM,0.05 to 5 mM,0.05 to 5 mM,0.1 to 1 µM,0.05 to 5 mM,0.05 to 5 mM,0.05 to 5 mM,0.05 to 5 mM,0.1 to 1 µM
"O=C1c2c(nc3ccccc3c2OCc2ccccc2Cl)-c2cccn21 [Compound 600b, 9-((2-chlorobenzyl)oxy)-10H-pyrrolizino[1,2-b]quinolin-10-one]",0.05 to 5 mM,0.05 to 5 mM,0.05 to 5 mM,1 to 10 µM,0.05 to 5 mM,0.05 to 5 mM,0.05 to 5 mM,0.05 to 5 mM,1 to 10 µM
"O=C1c2c(n(Cc3ccc(F)c(F)c3)c3ccccc3c2=O)-c2cccn21 [Compound 601a, 4-(3,4-Difluorobenzyl)-9H-pyrrolizino[1,2-b]quinoline-9,10(4H)-dione]",0.05 to 5 mM,0.05 to 5 mM,0.05 to 5 mM,1 to 10 µM,0.05 to 5 mM,0.05 to 5 mM,0.05 to 5 mM,0.05 to 5 mM,1 to 10 µM
"O=C1c2c(nc3ccccc3c2OCc2ccc(F)c(F)c2)-c2cccn21 [Compound 601b, 9-((3,4-difluorobenzyl)oxy)-10H-pyrrolizino[1,2-b]quinolin-10-one]",0.05 to 5 mM,0.05 to 5 mM,0.05 to 5 mM,1 to 10 µM,0.05 to 5 mM,0.05 to 5 mM,0.05 to 5 mM,0.05 to 5 mM,1 to 10 µM
"O=C1c2c(n(Cc3ccc(Cl)cc3F)c3ccccc3c2=O)-c2cccn21 [Compound 602a, 4-(4-Chloro-2-fluorobenzyl)-9H-pyrrolizino[1,2-b]quinoline-9,10(4H)-dione]",0.05 to 5 mM,0.05 to 5 mM,0.05 to 5 mM,1 to 10 µM,0.05 to 5 mM,0.05 to 5 mM,0.05 to 5 mM,0.05 to 5 mM,1 to 10 µM
"O=C1c2c(nc3ccccc3c2OCc2ccc(Cl)cc2F)-c2cccn21 [Compound 602b, 9-((4-chloro-2-fluorobenzyl)oxy)-10H-pyrrolizino[1,2-b]quinolin-10-one]",0.05 to 5 mM,0.05 to 5 mM,0.05 to 5 mM,1 to 10 µM,0.05 to 5 mM,0.05 to 5 mM,0.05 to 5 mM,0.05 to 5 mM,1 to 10 µM
"O=C1c2c(n(Cc3ccc(F)c(Cl)c3)c3ccccc3c2=O)-c2cccn21 [Compound 603a, 4-(3-Chloro-4-fluorobenzyl)-9H-pyrrolizino[1,2-b]quinoline-9,10(4H)-dione]",0.05 to 5 mM,0.05 to 5 mM,0.05 to 5 mM,1 to 10 µM,< 0.05 mM,0.05 to 5 mM,0.05 to 5 mM,0.05 to 5 mM,1 to 10 µM
"O=C1c2c(nc3ccccc3c2OCc2ccc(F)c(Cl)c2)-c2cccn21 [Compound 603b, 9-((3-chloro-4-fluorobenzyl)oxy)-10H-pyrrolizino[1,2-b]quinolin-10-one]",0.05 to 5 mM,0.05 to 5 mM,0.05 to 5 mM,1 to 10 µM,0.05 to 5 mM,0.05 to 5 mM,0.05 to 5 mM,0.05 to 5 mM,1 to 10 µM
"Cc1ccc(Cn2c3c(c(=O)c4ccccc42)C(=O)n2cccc2-3)cc1 [Compound 604a, 4-(4-Methylbenzyl)-9H-pyrrolizino[1,2-b]quinoline-9,10(4H)-dione]",0.05 to 5 mM,0.05 to 5 mM,0.05 to 5 mM,1 to 10 µM,0.05 to 5 mM,0.05 to 5 mM,< 0.05 mM,0.05 to 5 mM,1 to 10 µM
"Cc1ccc(COc2c3c(nc4ccccc24)-c2cccn2C3=O)cc1 [Compound 604b, 9-((4-methylbenzyl)oxy)-10H-pyrrolizino[1,2-b]quinolin-10-one]",0.05 to 5 mM,0.05 to 5 mM,0.05 to 5 mM,1 to 10 µM,0.05 to 5 mM,0.05 to 5 mM,0.05 to 5 mM,0.05 to 5 mM,1 to 10 µM
"CC(C)(C)c1ccc(Cn2c3c(c(=O)c4ccccc42)C(=O)n2cccc2-3)cc1 [Compound 605a, 4-(4-(Tert-butyl)benzyl)-9H-pyrrolizino[1,2-b]quinoline-9,10(4H)-dione]",0.05 to 5 mM,0.05 to 5 mM,0.05 to 5 mM,1 to 10 µM,0.05 to 5 mM,0.05 to 5 mM,0.05 to 5 mM,0.05 to 5 mM,1 to 10 µM
"CC(C)(C)c1ccc(COc2c3c(nc4ccccc24)-c2cccn2C3=O)cc1 [Compound 605b, 9-((4-(tert-butyl)benzyl)oxy)-10H-pyrrolizino[1,2-b]quinolin-10-one]",0.05 to 5 mM,0.05 to 5 mM,0.05 to 5 mM,1 to 10 µM,0.05 to 5 mM,0.05 to 5 mM,0.05 to 5 mM,0.05 to 5 mM,1 to 10 µM
"O=C1c2c(n(Cc3ccc(Br)cc3F)c3ccccc3c2=O)-c2cccn21 [Compound 606a, 4-(4-Bromo-2-fluorobenzyl)-9H-pyrrolizino[1,2-b]quinoline-9,10(4H)-dione]",0.05 to 5 mM,0.05 to 5 mM,0.05 to 5 mM,0.1 to 1 µM,< 0.05 mM,0.05 to 5 mM,< 0.05 mM,0.05 to 5 mM,1 to 10 µM
"O=C1c2c(nc3ccccc3c2OCc2ccc(Br)cc2F)-c2cccn21 [Compound 606b, 9-((4-bromo-2-fluorobenzyl)oxy)-10H-pyrrolizino[1,2-b]quinolin-10-one]",0.05 to 5 mM,0.05 to 5 mM,0.05 to 5 mM,1 to 10 µM,0.05 to 5 mM,0.05 to 5 mM,0.05 to 5 mM,0.05 to 5 mM,1 to 10 µM
"O=C1c2c(n(Cc3cc(C(F)(F)F)cc(C(F)(F)F)c3)c3ccccc3c2=O)-c2cccn21 [Compound 607a, 4-(3,5-Bis(trifluoromethyl)benzyl)-9H-pyrrolizino[1,2-b]quinoline-9,10(4H)-dione]",0.05 to 5 mM,0.05 to 5 mM,0.05 to 5 mM,1 to 10 µM,0.05 to 5 mM,0.05 to 5 mM,0.05 to 5 mM,0.05 to 5 mM,0.1 to 1 µM
"O=C1c2c(nc3ccccc3c2OCc2cc(C(F)(F)F)cc(C(F)(F)F)c2)-c2cccn21 [Compound 607b, 9-((3,5-bis(trifluoromethyl)benzyl)oxy)-10H-pyrrolizino[1,2-b]quinolin-10-one]",0.05 to 5 mM,0.05 to 5 mM,0.05 to 5 mM,1 to 10 µM,0.05 to 5 mM,0.05 to 5 mM,0.05 to 5 mM,0.05 to 5 mM,1 to 10 µM
"O=C1c2c(n(Cc3cccc(I)c3)c3ccccc3c2=O)-c2cccn21 [Compound 608a, 4-(3-Iodobenzyl)-9H-pyrrolizino[1,2-b]quinoline-9,10(4H)-dione]",0.05 to 5 mM,< 0.05 mM,0.05 to 5 mM,1 to 10 µM,< 0.05 mM,0.05 to 5 mM,0.05 to 5 mM,0.05 to 5 mM,1 to 10 µM
